Results as given in US11278497B2, “Co-spray drying of meropenem and colistin and the uses thereof” (Purdue Research Foundation, priority 2018, dated 2022).
Values after ≈ are worked out from the molar mass of the structure shown. Like-named read-outs stand apart in the source and are kept apart here.

Assays:
[1] = tested on: A. baumannii N16870; experiment: Minimum inhibitory concentration, clinical isolate A. baumannii N16870; assay type: cell-based, Acinetobacter baumannii
[2] = tested on: P. aeruginosa 19147; experiment: Time-kill assay against P. aeruginosa 19147; assay type: cell-based, Pseudomonas aeruginosa; conditions: for time-kill antibacterial activity, monotherapy (summary): considerable regrowth; for complete bacterial killing in time-kill: monotherapy, e.g. 192 mg/L, at 24 h
Method: (§1) Time-kill studies were conducted for meropenem, colistin and three combinations (Colistin:Meropenem_1:3, Colistin:Meropenem_1:1 and Colistin:Meropenem_3:1) against A. baumannii N16870 and P. aeruginosa 19147. All experiments were performed with an initial inoculum of ˜10^6 CFU/mL in 20 mL of Cation-Adjusted Mueller-Hinton Broth (CAMHB) in 50 mL pyrogen-free and sterile polypropylene tubes. Serial samples (50 μL) were collected at 0, 1, 2, 4, and 24 h for viable counting on nutrient agar plates and the limit of detection was 20 CFU/mL. A ProtoCOL automated colony counter (Synbiosis, Cambridge, United Kingdom) was used to quantify bacteria after 24 h of incubation at 37° C. Bacterial growth was measured after 0, 1, 2, 4 and 24 h of incubation at 37° C. A growth control without antibiotic was also tested.

[3] = tested on: Pseudomonas aeruginosa 19147; experiment: Minimum inhibitory concentration, clinical isolate Pseudomonas aeruginosa 19147; assay type: cell-based
[4] = cited from earlier work
[5] = tested on: A. baumannii N16870; experiment: Time-kill assay against A. baumannii N16870; assay type: cell-based, Acinetobacter baumannii; conditions: for time-kill antibacterial activity, monotherapy (summary): considerable regrowth except colistin at 48 mg/L
Method: as §1

[6] = monotherapy 16 mg/L, up to 24 h

| Compound | MIC ([1]; Acinetobacter baumannii) | time-kill antibacterial activity, monotherapy (summary) [2] | complete bacterial killing in time-kill [2] | MIC ([3]; read-out: MIC) | water solubility [4] | time-kill antibacterial effect [5, 6] | regrowth in time-kill ([5]; monotherapy 48 mg/L) | time-kill antibacterial effect ([5]; monotherapy 48 mg/L) | time-kill antibacterial activity, monotherapy (summary) [5] | minimum inhibitory concentration [MIC] [1] | MIC [3] | regrowth in time-kill ([5]; monotherapy 16 mg/L) |
| --- | --- | --- | --- | --- | --- | --- | --- | --- | --- | --- | --- | --- |
| C[C@@H](O)[C@H]1C(=O)N2C(C(=O)O)=C(S[C@@H]3CN[C@H](C(=O)N(C)C)C3)[C@H](C)[C@H]12 [meropenem] | 16 µg/mL (≈ 41.7 µM) | weak antibacterial activity | complete killing could not be achieved | 16 µg/mL (≈ 41.7 µM) | approximately 16.4 mg/mL | no antibacterial effect | regrowth was observed in 4 h | marginal antibacterial activity | weak antibacterial activity | – | – | – |
| colistin | – | weak antibacterial activity | complete killing could not be achieved | – | – | bacterial killing | – | bacterial killing | weak antibacterial activity | 0.5 µg/mL | 0.5 µg/mL | regrowth was evident in 4 h |
